Data taken from ChEMBL document CHEMBL3046674, “A new fatty alcohol from Terminalia arjuna leaves with antileishmanial activity” (Med Chem Res, 2013).
Converted amounts (≈) assume the structure as drawn.

test system: Leishmania donovani; assay: Antileishmanial activity against promastigote form of Leishmania donovani after 48 hrs by Alamar Blue assay; format: functional, organism-based

For `C/C(=C\CO)CC(C)CC(C)CCCCCCCCC(C)C` (configuration not stated), which IC50 is on record?
Its IC50 is 9 µg/mL (≈ 29 µM).

And the IC90?
The IC90 was 30 µg/mL (≈ 96.6 µM).

What does the source list for `C[C@@H]1[C@H](O)[C@@H](C)/C=C/C=C/C=C/C=C/C=C/C=C/C=C/[C@H](O[C@@H]2O[C@H](C)[C@@H](O)[C@H](N)[C@@H]2O)C[C@@H]2O[C@](O)(C[C@@H](O)C[C@@H](O)[C@H](O)CC[C@@H](O)C[C@@H](O)CC(=O)O[C@H]1C)C[C@H](O)[C@H]2C(=O)O` [AMPHOTERICIN B]?
IC50: 0.47 µg/mL (≈ 0.509 µM); IC90: 0.65 µg/mL (≈ 0.703 µM)

Which IC90 does the source give for `N=C(N)c1ccc(OCCCCCOc2ccc(C(=N)N)cc2)cc1` [PENTAMIDINE] here?
The IC90 was 2.03 µg/mL (≈ 5.96 µM).

Which results are given for `CC(=O)OC/C=C(\C)CC(C)CC(C)CCCCCCCCC(C)C` (configuration not stated)?
IC50: 2 µg/mL (≈ 5.67 µM); IC90: 6 µg/mL (≈ 17 µM)
